Test results published in patent US20240294543A1, “CYCLOHEPTA-THIENO-DIAZEPINE DERIVATIVES AS GABA A GAMMA1 PAM” (Hoffmann-La Roche Inc., priority 2021, published 2024).

Legend:
[1] = target: h-GABA-A α2β2γ1 (Homo sapiens (Human), UniProt P47869+Q8N1C3); assay: Two-electrode voltage clamp electrophysiology in Xenopus oocytes expressing GABAA receptors; format: cell-based; settings: for Efficacy (GABA) %: % modulation of GABA EC20 = 100*(Fold increase−1), compound at about 30-fold its Ki α2β2γ1; for Fold increase h-GABA-A α2β2γ1 oocyte @ 30-fold Ki: Xenopus oocytes, GABA EC20, compound at about 30-fold its Ki α2β2γ1
Procedure: Xenopus Oocytes Preparation Xenopus laevis oocytes at maturation stages V-VI were used for the expression of cloned mRNA encoding GABAA receptor subunits. Oocytes ready for RNA micro-injection were bought from Ecocyte, Castrop-Rauxel, Germany and stored in modified Barth's medium (composition in mM: NaCl 88, KCl 1, NaHCO3 2.4, HEPES 10, MgSO4 0.82, CaNO3 0.33, CaCl2 0.33, pH=7.5) at 20° C. until the experiment.
Oocytes were plated in 96-well plates for microinjection using the Roboinject automated instrument (MultiChannelSystems, Reutlingen, Germany). Approximately 50 nL of an aqueous solution containing the RNA transcripts for the subunits of the desired GABAA receptor subtype was injected into each oocyte. […] Oocytes were kept in modified Barth's medium (composition in mM: NaCl 88, KCl 1, NaHCO3 […], HEPES 10, MgSO4 0.82, CaNO3 0.33, CaCl2 0.33, pH=7.5) at 20° C. until the experiment.
Electrophysiological experiments were performed using the Roboocyte instrument (MultiChannelSystems, Reutlingen, Germany) on days 3 to 5 after the micro-injection of mRNA. During the experiment the oocytes were constantly superfused by a solution containing (in mM) NaCl 90, KCl 1, HEPES 5, MgCl2 1, CaCl2 1 (pH 7.4). Oocytes were impaled by two glass microelectrodes (resistance: 0.5-0.8 MQ) which were filled with a solution containing KCl 1M+K-acetate 1.5 M and voltage-clamped to −80 mV. The recordings were performed at room temperature using the Roboocyte two-electrode voltage clamp system (Multichannelsystem). After an initial equilibration period of 1.5 min GABA was added for 1.5 min at a concentration evoking approximately 20% of a maximal current response (EC20). After another rest interval of 2.5 min GABA was again added evoking a response of similar amplitude and shape. […] Current traces were recorded at a digitization rate of 10 Hz during and shortly before and after the GABA application.
Each compound and concentration was tested on at least 3 oocytes. Different oocytes were used for different compound concentrations.
For the analysis, the digitized current traces of the first and second GABA response were superimposed and, if necessary, rescaled to equal maximal amplitudes. The ratio between the two responses during the time interval of test compound application was calculated point by point. The extremum of the resulting “ratio trace” was taken as the efficacy (“Fold increase”) of the compound expressed as “% modulation of GABA EC20” (100*(Fold increase−1)).

[2] = target: human GABAA α5β2γ1 receptor (Homo sapiens (Human), UniProt P31644+Q8N1C3); assay: Radioligand binding assay, competition for [3H]RO7239181, γ1-containing GABAA subtypes
Procedure: The affinity of compounds at GABAA γ1 subunit-containing receptors was measured by competition for [^3H]RO7239181 (67.3 Ci/mmol; Roche) binding to membranes from HEK293F cells (ThermoFisher R79007) expressing human (transiently transfected) receptors of composition α5β2γ1, α2β2γ1, α1β2γ1. For better protein expression of the α2 subunit-containing receptors, the 28 amino acid long signal peptide (Met1 to Ala28) of the human GABAA α2 subunit was substituted by the 31 amino acid long signal peptide (Met1 to Ser31) of human GABAA α5 subunit.
Harvested pellets from HEK293F cells expressing the different GABAA receptor subtypes were resuspended in Mannitol Buffer pH 7.2-7.4 (Mannitol 0.29 M, Triethylamine 10 mM, Acetic acid 10 mM, EDTA 1 mM plus protease inhibitors (20 tablets Complete, Roche Diagnostics Cat. No. 05 056 489 001 per liter)), washed two times and then resuspended at 1:10 to 1:15 dilution in the same buffer. Cell disruption was performed by stirring the suspension in a Parr vessel #4637 at 435 psi for 15 minutes, and then the suspensions were centrifuged at 1000×g for 15 minutes at 4° C. (Beckman Avanti J-HC; rotor JS-4.2). The supernatant (S1) was transferred in a 21 Schott flask and the pellet (P1) was resuspended with Mannitol Buffer up to 175 ml. The resuspended pellet was transferred into a 250 ml Corning centrifugal beaker and centrifuged at 1500×g for 10 minutes at 4° C. (Beckman Avanti J-HC; rotor JS-4.2). The supernatant (S1) was then transferred in the 21 Schott flask and the pellet was discarded. The supernatants (S1) were centrifuged in 500 ml Beckman polypropylene centrifugal beaker at 15'000×g for 30 minutes at 4° C. (Beckman Avanti J-20 XP; rotor JLA-10.500). The pellet (P2) was resuspended with Mannitol Buffer 1:1 and frozen at −80° C. The supernatant (S2) was centrifuged in 100 ml Beckman polypropylene centrifugal tubes at 48000×g for 50 minutes at 4° C. (Beckman Avanti J-20 XP; rotor JA-18). The supernatant (S3) was discarded and the pellet (P3) was resuspended with 1:1 Mannitol Buffer. The P2 and P3 protein concentration was determined with the BIORAD Standard assay method with bovine serum albumin as standard and measured on the NANO-Drop 1000. The membrane suspension was aliquots (500 μl per tube) and stored at −80° C. until required.
Membrane homogenates were resuspended and polytronised (Polytron PT1200E Kinematica AG) in Potassium Phosphate 10 mM, KCl 100 mM binding buffer at pH 7.4 to a final assay concentration determined with a previous experiment.
Radioligand binding assays were carried out in a volume of 200 μL (96-well plates) which contained 100 μL of cell membranes, [^3H]RO7239181 at a concentration of 1.5 nM (α5β2γ1) or 20-30 nM (α1β2γ1, α2β2γ1) and the test compound in the range of [0.3-10000]×10^−9 M. Nonspecific binding was defined by 10×10^−6 (α5β2γ1) and 30×10^−6 M RO7239181 and typically represented less than 5% (α5β2γ1) and less than 20% (α1β2γ1, α2β2γ1) of the total binding. Assays were incubated to equilibrium for 1 hour at 4° C. and then, membranes were filtered onto unifilter (96-well white microplate with bonded GF/C filters preincubated 20-50 minutes in 0.3% Polyethylenimine) with a Filtermate 196 harvester (Packard BioScience) and washed 4 times with cold Potassium Phosphate 10 mM pH 7.4, KCl 100 mM binding buffer. After anhydrousing, filter-retained radioactivity was detected by liquid scintillation counting. Ki values were calculated using Excel-Fit (Microsoft) and are the means of two determinations.

SMILES | Efficacy (GABA) % [1] | Fold increase h-GABA-A α2β2γ1 oocyte @ 30-fold Ki [1] | Ki [2]
Cc1nnc2n1-c1sc3c(c1C(c1c(F)cccc1F)=N[C@H]2C)CC[C@@H](F)CC3 (single isomer, unassigned) [Example 15] | 144% | 2.44 | 8 nM
C[C@@H]1N=C(c2c(F)cccc2F)c2c(sc3c2COCCO3)-n2cc(C(=O)NCC3(O)CC3)nc21 [Example 65, (7S)-9-(2,6-difluorophenyl)-N-[(1-hydroxycyclopropyl)methyl]-7-methyl-13,16-dioxa-18-thia-2,5,8-triazatetracyclo[8.8.0.02,6.011,17]octadeca-1(10),3,5,8,11(17)-pentaene-4-carboxamide] | 169% | 2.69 | 1.69 nM
Cc1nnc2n1-c1sc3c(c1C(c1c(F)cccc1F)=N[C@H]2C)COCCC3 [Example 52, (7S)-9-(2,6-difluorophenyl)-3,7-dimethyl-13-oxa-18-thia-2,4,5,8-tetrazatetracyclo[8.8.0.02,6.011,17]octadeca-1(10),3,5,8,11(17)-pentaene] | 170% | 2.70 | 7.6 nM
C[C@@H]1N=C(c2c(F)cccc2F)c2c(sc3c2COCCO3)-n2nc(C(=O)NC[C@](C)(O)C(F)(F)F)nc21 [Example 47, (7S)-9-(2,6-difluorophenyl)-7-methyl-N-[(2S)-3,3,3-trifluoro-2-hydroxy-2-methyl-propyl]-13,16-dioxa-18-thia-2,3,5,8-tetrazatetracyclo[8.8.0.02,6.011,17]octadeca-1(10),3,5,8,11(17)-pentaene-4-carboxamide] | 89% | 1.89 | 4.43 nM
C[C@@H]1N=C(c2c(F)cccc2F)c2c(sc3c2COCCC3)-n2cc(C(=O)NCCO)nc21 [Example 66, (7S)-9-(2,6-difluorophenyl)-N-(2-hydroxyethyl)-7-methyl-13-oxa-18-thia-2,5,8-triazatetracyclo[8.8.0.02,6.011,17]octadeca-1(10),3,5,8,11(17)-pentaene-4-carboxamide] | 153% | 2.53 | 2.94 nM
C[C@@H]1N=C(c2c(F)cccc2F)c2c(sc3c2COCCC3)-n2cc(C(=O)NCC(C)(C)O)nc21 [Example 67, (7S)-9-(2,6-difluorophenyl)-N-(2-hydroxy-2-methyl-propyl)-7-methyl-13-oxa-18-thia-2,5,8-triazatetracyclo[8.8.0.02,6.011,17]octadeca-1(10),3,5,8,11(17)-pentaene-4-carboxamide] | 164% | 2.64 | 7.4 nM
C[C@@H]1N=C(c2c(F)cccc2F)c2c(sc3c2COCCC3)-n2nc(C(=O)N[C@H]3C[C@@H](O)C3)nc21 [Example 64, (7S)-9-(2,6-difluorophenyl)-N-(cis-3-hydroxycyclobutyl)-7-methyl-13-oxa-18-thia-2,3,5,8-tetrazatetracyclo[8.8.0.02,6.011,17]octadeca-1(10),3,5,8,11(17)-pentaene-4-carboxamide] | 164% | 2.64 | 6.5 nM
Cc1nnc2n1-c1sc3c(c1C(c1c(F)cccc1F)=N[C@H]2C)COC[C@H](C)O3 [Example 30, (7S,15S)-9-(2,6-difluorophenyl)-3,7,15-trimethyl-13,16-dioxa-18-thia-2,4,5,8-tetrazatetracyclo[8.8.0.02,6.011,17]octadeca-1(10),3,5,8,11(17)-pentaene] | 150% | 2.50 | 3.28 nM
Cc1nnc2n1-c1sc3c(c1C(c1c(F)cccc1F)=N[C@H]2C)CCC(F)C(F)C3 (single isomer, unassigned) [Example 34] | 134% | 2.34 | 20.9 nM
